Experimental data reported in patent US11751573B2, “Seaweed composition” (priority 2017, dated 2023).

Columns and labels:
[1] = system: Phaseolus vulgaris callus; conditions: Phaseolus vulgaris callus assay; Matsbuara 1990; cited from earlier work
tobacco callus = tobacco callus bioassay, cited from earlier work; for MINIMUM CONCENTRATION / OPTIMUM CONCENTRATION: Matsubara 1990, Letham et al. 1983; for minimum concentrations required for activity compared to tZ and BA: fold worse
Phaseolus lunatus callus = conditions: cited from earlier work; for MINIMUM CONCENTRATION / OPTIMUM CONCENTRATION: P. lunatus callus bioassay, Matsbuara 1990; for EC50: Phaseolus lunatus callus, Mok et al. 2005, read-out: concentration at which one half of the maximal growth is achieved
[2] = system: Tobacco callus/P. lunatus callus; assay: trans-Zeatin equivalents based on Tobacco callus/P. lunatus callus bioassay; type: cell-based; conditions: for nM in tZ EQUIVALENTS IN KELPAK / nM in tZ E[…] KELPAK: contribution of the cytokinin in Kelpak
Description: It can be seen from Table 4 that there is significant variation in activity between the cytokinins. The minimum concentration required for an effect and the optimum concentration in the tobacco callus assay are much better for iP and tZ than the other cytokinins, with BA still quite good.
The activity of pT in this assay has not been reported.
Nevertheless, the response of plant growth to different cytokinins can vary depending on the specific circumstances.

Pea test = conditions: used to make it equivalent to IAA; Pilet 1971; cited from earlier work
[3] = contribution of the cytokinin in Composition 2
[4] = contribution of the cytokinin in Composition 1

For `c1ccc(CNc2ncnc3nc[nH]c23)cc1` [N6-benzyladenine (BA), N6-benzyladenine], the MINIMUM CONCENTRATION [1] is given as 0.001 µM, the “MINIMUM CONCENTRATION” value (tobacco callus) is given as 0.0008 µM and the “OPTIMUM CONCENTRATION” value (tobacco callus) is given as 0.07 µM. For the same compound, the MINIMUM CONCENTRATION (Phaseolus lunatus callus) was 0.01 µM, the OPTIMUM CONCENTRATION (Phaseolus lunatus callus) was 3 µM and the EC50 (Phaseolus lunatus callus) was about 40 nM. The “nM in tZ EQUIVALENTS IN 90° C. EXTRACT (COMPOSITION 2)” value [2, 3] was 0.0002 nM and the “nM in tZ EQUIVALENTS IN KELPAK” value [2] was 0.01 nM.

For `Oc1ccc(CNc2ncnc3nc[nH]c23)cc1` [para-topolin (pT), para-topolin], the EC50 (Phaseolus lunatus callus) is given as about 30000 nM, the “nM in tZ EQUIVALENTS IN ROOM TEMPERATURE EXTRACT (COMPOSITION 1)” value [2, 4] is given as 0.0001 nM and the “nM in tZ EQUIVALENTS IN 90° C. EXTRACT (COMPOSITION 2)” value [2, 3] is given as 0.09 nM.

In the case of trans-zeatin riboside-O-glucoside, the “MINIMUM CONCENTRATION” value (tobacco callus) is given as 0.003 µM and the “nM in tZ E[…] KELPAK” value [2] is given as 0.0005 nM.

For `C/C(=C/CNc1ncnc2nc[nH]c12)CO` [cis-zeatin (cZ), cis-zeatin], the MINIMUM CONCENTRATION [1] is listed as 0.01 µM, the OPTIMUM CONCENTRATION [1] is listed as 3 µM and the “MINIMUM CONCENTRATION” value (tobacco callus) is listed as 0.03 µM. The “OPTIMUM CONCENTRATION” value (tobacco callus) was 0.5 µM, the MINIMUM CONCENTRATION (Phaseolus lunatus callus) was 0.03 µM and the OPTIMUM CONCENTRATION (Phaseolus lunatus callus) was 3 µM. The EC50 (Phaseolus lunatus callus) was about 300 nM, the “nM in tZ E[…] ROOM T[…] (COMPOSITION 1)” value [2, 4] was 0.03 nM and the “nM in tZ E[…] 90° C. EXTRACT (COMPOSITION 2)” value [2, 3] was 0.03 nM. For the same compound, the “nM in tZ E[…] KELPAK” value [2] was 0.00008 nM.

For `Oc1cccc(CNc2ncnc3nc[nH]c23)c1` [mT, meta-topolin], the “optimum concentration compared to tZ” value (tobacco callus; Holub et al. 1998) is given as “similar”, the “minimum concentrations required for activity compared to tZ and BA” value (tobacco callus; Holub et al. 1998) is given as “similar” and the EC50 (Phaseolus lunatus callus) is given as about 50 nM.

In the case of `CC(CCNc1ncnc2nc[nH]c12)CO[C@@H]1O[C@H](CO)[C@@H](O)[C@H](O)[C@H]1O` (stereo partly drawn) [Dihydrozeatin-O-glucoside (DHZOG), Dihydrozeatin-O-glucoside], the “MINIMUM CONCENTRATION” value (tobacco callus) is listed as 0.001 µM.

For `COC(=O)C(=O)c1c[nH]c2ccccc12` [IGAMe, indole-3-glyoxylic acid methyl ester], the “activity relative to IAA” value (Pea test) is given as 1/28.

For `OC[C@H]1O[C@@H](n2cnc3c(NCc4ccccc4)ncnc32)[C@H](O)[C@@H]1O` [N6-benzyladenosine (BAR), N6-benzyladenosine], the “MINIMUM CONCENTRATION” value (tobacco callus) is listed as 0.02 µM, the “OPTIMUM CONCENTRATION” value (tobacco callus) is listed as 1 µM and the “nM in tZ EQUIVALENTS IN KELPAK” value [2] is listed as 0.0001 nM.

For `Oc1ccccc1CNc1ncnc2nc[nH]c12` [ortho-topolin (oT), ortho-topolin], the “minimum concentrations required for activity compared to tZ and BA” value (tobacco callus; Holub et al. 1998) is listed as 100 fold, the EC50 (Phaseolus lunatus callus) is listed as about 1000 nM and the “nM in tZ EQUIVALENTS IN KELPAK” value [2] is listed as 0.002 nM.

In the case of `OC[C@H]1O[C@@H](n2cnc3c(NCc4ccccc4O)ncnc32)[C@H](O)[C@@H]1O` [oTR, ortho-topolin riboside], the “minimum concentrations required for activity compared to tZ and BA” value (tobacco callus; Holub et al. 1998) is listed as 100 fold.

In the case of `CC(CO)CCNc1ncnc2c1ncn2[C@@H]1O[C@H](CO)[C@@H](O)[C@H]1O` (stereo partly drawn) [dihydrozeatin riboside (DHZR), dihydrozeatin riboside], the “MINIMUM CONCENTRATION” value (tobacco callus) is listed as 0.01 µM, the “OPTIMUM CONCENTRATION” value (tobacco callus) is listed as 4 µM and the “nM in tZ EQUIVALENTS IN KELPAK” value [2] is listed as 0.00001 nM.

In the case of `CC(CO)CCNc1ncnc2nc[nH]c12` (stereo not drawn) [dihydrozeatin (DHZ), dihydrozeatin], the “MINIMUM CONCENTRATION” value (tobacco callus) is given as 0.01 µM and the “OPTIMUM CONCENTRATION” value (tobacco callus) is given as 0.4 µM.

In the case of “trans-zeatin-O-glucoside [trans-zeatin-O-glucoside (tZOG)]”, the “MINIMUM CONCENTRATION” value (tobacco callus) is listed as 0.001 µM and the “nM in tZ E[…] KELPAK” value [2] is listed as 3.6 nM.

In the case of `C/C(=C\CNc1ncnc2nc[nH]c12)CO` [trans-zeatin (tZ), trans-zeatin], the MINIMUM CONCENTRATION [1] is given as 0.0301 µM, the OPTIMUM CONCENTRATION [1] is given as 3 µM and the “MINIMUM CONCENTRATION” value (tobacco callus) is given as 0.0001 µM. For the same compound, the “OPTIMUM CONCENTRATION” value (tobacco callus) was 0.004 to 0.05 µM, the MINIMUM CONCENTRATION (Phaseolus lunatus callus) was 0.001 µM and the OPTIMUM CONCENTRATION (Phaseolus lunatus callus) was 0.3 µM. The EC50 (Phaseolus lunatus callus) was about 20 nM and the “nM in tZ E[…] KELPAK” value [2] was 0.29 nM.

In the case of “cis-zeatin riboside [cis-zeatin riboside (cZR)]”, the “MINIMUM CONCENTRATION” value (tobacco callus) is listed as 0.03 µM and the “OPTIMUM CONCENTRATION” value (tobacco callus) is listed as 0.3 µM.

In the case of `c1coc(CNc2ncnc3[nH]cnc23)c1` [kinetin (K), kinetin], the “MINIMUM CONCENTRATION” value (tobacco callus) is given as 0.001 µM and the “OPTIMUM CONCENTRATION” value (tobacco callus) is given as 0.1 µM.

For “trans-zeatin-9-glucoside [trans-zeatin-9-glucoside (tZ9G)]”, the “MINIMUM CONCENTRATION” value (tobacco callus) is given as over 50 µM.

In the case of `C/C(=C\CNc1ncnc2c1ncn2[C@@H]1O[C@H](CO)[C@@H](O)[C@H]1O)CO` (relative stereo) [trans-zeatin riboside (tZR), trans-zeatin riboside], the MINIMUM CONCENTRATION [1] is given as 0.03 µM, the OPTIMUM CONCENTRATION [1] is given as 3 µM and the “MINIMUM CONCENTRATION” value (tobacco callus) is given as 0.003 µM. For the same compound, the “OPTIMUM CONCENTRATION” value (tobacco callus) was 0.3 µM, the MINIMUM CONCENTRATION (Phaseolus lunatus callus) was 0.003 µM and the OPTIMUM CONCENTRATION (Phaseolus lunatus callus) was 0.1 µM.

For `CC(CCNc1ncnc2c1ncn2C1OC(CO)C(O)C1O)COC1OC(CO)C(O)C(O)C1O` (stereo not drawn) [dihydrozeatin riboside-O-glucoside], the “MINIMUM CONCENTRATION” value (tobacco callus) is given as 0.002 µM and the “nM in tZ EQUIVALENTS IN KELPAK” value [2] is given as 0.00003 nM.
